Where “and” joins values, the source holds several entries; their conditions need not be identical. Identical values can stand only once. Like-named read-outs stand apart in the source and are kept apart here.
Key:
Assay type in all cases: cell-based
GPR139 [1] = biological target: T1, GPR139 (Homo sapiens, UniProt Q6DWJ6); experiment: Ca2+ mobilization assay, agonist mode, stable GPR139-CHOk1 cell line; conditions: for Emax: normalized to Lundbeck Cmp 1a, read-out: Emax (%) Ca2+
T1 sequence (Q6DWJ6 1-353): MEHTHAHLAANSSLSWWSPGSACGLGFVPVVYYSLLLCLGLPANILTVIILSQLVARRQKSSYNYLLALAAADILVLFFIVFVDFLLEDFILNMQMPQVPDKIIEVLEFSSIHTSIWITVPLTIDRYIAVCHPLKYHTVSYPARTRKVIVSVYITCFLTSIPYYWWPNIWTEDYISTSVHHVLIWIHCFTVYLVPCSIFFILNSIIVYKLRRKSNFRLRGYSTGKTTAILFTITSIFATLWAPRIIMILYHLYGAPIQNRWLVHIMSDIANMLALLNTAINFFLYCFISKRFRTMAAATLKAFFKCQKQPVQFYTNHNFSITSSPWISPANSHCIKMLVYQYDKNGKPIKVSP
Method in brief: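 Agonist activity of compounds is assessed in stably transfected CHO-K1 cells using the calcium dye Fluo-4 at 37 °C in HEPES-buffered HBSS (pH 7.4). Efficacy is expressed relative to the reference agonist Lundbeck Cmp 1a, set as 100%.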

GPR139 [2] = biological target: T1, GPR139; experiment: Ca2+ mobilization assay, antagonist mode (EC80 800 nM Lundbeck Cmp 1a after 20 min preincubation), GPR139-CHOk1; conditions: individual replicates (Supplementary Figure 4)
Method in brief: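 Fluo-4-loaded GPR139-CHOk1 cells in HEPES-buffered HBSS (pH 7.4, 2.5 mM probenecid) given test compounds at 10 µM, then after 20 min challenged with 800 nM Lundbeck Cmp 1a (EC80). Calcium fluorescence read at 37 °C, 485/525 nm.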

[3] = biological target: T2, human muscarinic acetylcholine M1 receptor (M1R) (Homo sapiens, UniProt P11229); experiment: Ca2+ mobilization counter-screen in M1R-CHOk1 cells; conditions: individual replicates (Supplementary Figure 5)
T2 sequence (P11229 1-460): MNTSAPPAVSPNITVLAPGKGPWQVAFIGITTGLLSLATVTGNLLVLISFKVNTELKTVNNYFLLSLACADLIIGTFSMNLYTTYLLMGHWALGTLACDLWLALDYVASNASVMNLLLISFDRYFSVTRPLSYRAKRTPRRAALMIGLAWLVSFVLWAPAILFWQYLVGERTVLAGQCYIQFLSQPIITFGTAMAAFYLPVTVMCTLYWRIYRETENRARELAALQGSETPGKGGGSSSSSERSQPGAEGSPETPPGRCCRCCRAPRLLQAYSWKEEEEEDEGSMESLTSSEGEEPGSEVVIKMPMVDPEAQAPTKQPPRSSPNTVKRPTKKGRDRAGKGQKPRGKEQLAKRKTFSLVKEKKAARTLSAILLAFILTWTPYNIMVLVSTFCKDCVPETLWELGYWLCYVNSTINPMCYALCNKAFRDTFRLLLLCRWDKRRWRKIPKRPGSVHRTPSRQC
Description: Primary screening and pharmacological characterization of compounds were performed using a CHO-K1 cell line that stably expresses human GPR139 (GPR139-CHOk1). The GPR139-CHOk1 cell line was kindly provided by H. Lundbeck A/S, Denmark[24]. GPR139-CHOk1 cells were grown in Ham’s F-12 Kaighn’s Modification Medium (ThermoFisher #21127030) supplemented with 10% dialyzed fetal bovine serum (US origin, ThermoFisher #26400044), 100 units/mL Penicillin-Streptomycin (ThermoFisher #15140122), and 1 mg/mL Geneticin (ThermoFisher #11811031). […] M1R-CHOk1 cells were purchased from The Missouri S&T cDNA Resource Center (#CEM100TN00). M1R-CHOk1 cells were grown in Ham’s F12 Medium (ThermoFisher #21765029) supplemented with 10% fetal bovine serum (Brazilian origin, ThermoFisher #10270106), 100 units/mL Penicillin-Streptomycin, and 0.25 mg/mL Geneticin. HEK293A cells transiently transfected with GPR139 were used for additional pharmacological assessment of signaling pathways activated by GPR139. HEK239A cells were generously provided by Dr. Asuka Inoue, Tohoku University, Japan. HEK293A cells were grown in Dulbecco’s Modified Eagle Medium (ThermoFisher #31966047) supplemented with 10% dialyzed fetal bovine serum and 100 units/mL Penicillin-Streptomycin. Cell lines were maintained at 37 °C in humidified incubator equilibrated with 5% CO2.
30,000 GPR139- or M1R-CHOk1 cells/well were seeded in black clear bottom tissue culture treated 96-well plates (Greiner #655090) and grown for 20–24 h. Cells were washed with HEPES buffer (Hank’s Balanced Salt Solution (HBBS) supplemented with 20 mM HEPES, 1 mM MgCl2, and 1 mM CaCl2; pH 7.4). Cells were loaded with 50 µL of 2 µM Fluo-4 AM dye (ThermoFisher #F14202) in HEPES buffer supplemented with 2.5 mM probenecid and 0.01% Pluronic F-68 (ThermoFisher #24040032) for 1 h at 37 °C. Cells were washed with HEPES buffer. 50 µL HEPES buffer supplemented with 2.5 mM probenecid was added, and the cells were incubated for 10 min at 37 °C before measurement. 50 µL test compounds diluted in HEPES buffer from DMSO stocks (final DMSO concentration of maximally 0.3%) were added automatically after baseline measurements. The intracellular calcium mobilization was measured on a FlexStation 3 Multimode Microplate Reader (Molecular Devices) at 37 °C with filters for excitation of 485 nm and emission of 525 nm.

[4] = Agonist mode, individual replicates (Supplementary Figure 4)
[5] = Supplementary Table 2, mean ± SEM, read-out: pEC50 Ca2+ (converted)
[6] = Supplementary Table 2, mean ± SEM
[7] = log [Compound] M = -4.5, individual replicate columns
[8] = log [Compound] M = -5.0, individual replicate columns
[9] = log [Compound] M = -5.5, individual replicate columns
[10] = log [Compound] M = -6.0, individual replicate columns
[11] = log [Compound] M = -6.5, individual replicate columns
[12] = log [Compound] M = -7.0, individual replicate columns
[13] = log [Compound] M = -7.5, individual replicate columns
[14] = log [Compound] M = -8.0, individual replicate columns
[15] = log [Compound] M = -8.5, individual replicate columns
[16] = log [Compound] M = -9.0, individual replicate columns

SMILES	Ca2+ signal (% of Cmp 1a) (GPR139 [1]; [4])	fold decrease in potency relative to parent compound 1 (GPR139 [1]; Ca2+ mobilization EC50)	EC50 (GPR139 [1]; [5]) [µM]	Emax (GPR139 [1]; [6]) [%]	Ca2+ signal (% of Cmp 1a) (GPR139 [1]; [7])	Ca2+ signal (% of Cmp 1a) (GPR139 [1]; [8])	Ca2+ signal (% of Cmp 1a) (GPR139 [1]; [9])	Ca2+ signal (% of Cmp 1a) (GPR139 [1]; [10])	Ca2+ signal (% of Cmp 1a) (GPR139 [1]; [11])	Ca2+ signal (% of Cmp 1a) (GPR139 [1]; [12])	Ca2+ signal (% of Cmp 1a) (GPR139 [1]; [13])	Ca2+ signal (% of Cmp 1a) (GPR139 [1]; [14])	Ca2+ signal (% of Cmp 1a) (GPR139 [1]; [15])	Ca2+ signal (% of Cmp 1a) (GPR139 [1]; [16])	Ca2+ signal (% of Cmp 1a) (GPR139 [2])	Ca2+ signal (% of Carbachol) [3]	EC50 (GPR139 [1]; GPR139-CHOk1, read-out: EC50, Ca2+ mobilization) [µM]	change in potency with larger substituents on the thiophene ring (GPR139 [1]; Ca2+ mobilization)
Cc1cc(-c2nc(CC(=O)NC(C)c3ccccc3)no2)ns1 (centres unmarked) [Compound 1.43, CC(NC(=O)CC1=NOC(=N1)C=2C=C(C)SN2)C=3C=CC=CC3]	63 % of Cmp 1a and 81 % of Cmp 1a and 86 % of Cmp 1a	3- to 25 fold	1.58	102 ± 7	114 % of Cmp 1a and 107 % of Cmp 1a and 84 % of Cmp 1a	92 % of Cmp 1a and 86 % of Cmp 1a and 81 % of Cmp 1a	82 % of Cmp 1a and 55 % of Cmp 1a and 100 % of Cmp 1a	35 % of Cmp 1a and 11 % of Cmp 1a and 48 % of Cmp 1a	14 % of Cmp 1a and -6.32 % of Cmp 1a and 5 % of Cmp 1a	-6 % of Cmp 1a and 6 % of Cmp 1a and -11 % of Cmp 1a	0.152 % of Cmp 1a and 7 % of Cmp 1a and -5.32 % of Cmp 1a	0.817 % of Cmp 1a and 5 % of Cmp 1a and 7 % of Cmp 1a	-1.79 % of Cmp 1a and -1.64 % of Cmp 1a and 0.136 % of Cmp 1a	1.86 % of Cmp 1a and -3 % of Cmp 1a and -0.513 % of Cmp 1a	4.33 % of Cmp 1a and 17 % of Cmp 1a and 5 % of Cmp 1a	-0.351 % of Carbachol and 1.19 % of Carbachol and 1.15 % of Carbachol	–	–
Cc1cc(-c2nc(CC(=O)NC(C)c3ccccc3)no2)no1 (centres unmarked) [Compound 1.23, CC(C1=CC=CC=C1)NC(CC2=NOC(C3=NOC(C)=C3)=N2)=O]	72 % of Cmp 1a and 57 % of Cmp 1a and 85 % of Cmp 1a	–	1.58	95 ± 3	95 % of Cmp 1a and 102 % of Cmp 1a and 98 % of Cmp 1a and 93 % of Cmp 1a	96 % of Cmp 1a and 81 % of Cmp 1a and 85 % of Cmp 1a and 77 % of Cmp 1a	80 % of Cmp 1a and 55 % of Cmp 1a and 48 % of Cmp 1a and 70 % of Cmp 1a	56 % of Cmp 1a and 30 % of Cmp 1a and 19 % of Cmp 1a and 38 % of Cmp 1a	38 % of Cmp 1a and 9 % of Cmp 1a and -1 % of Cmp 1a and 11 % of Cmp 1a	18 % of Cmp 1a and 5.7 % of Cmp 1a and 1.07 % of Cmp 1a and 6 % of Cmp 1a	12 % of Cmp 1a (2×) and 15 % of Cmp 1a and 0.388 % of Cmp 1a	-3 % of Cmp 1a and 11 % of Cmp 1a and 10 % of Cmp 1a and 0.199 % of Cmp 1a	-4.71 % of Cmp 1a and 7 % of Cmp 1a and 14 % of Cmp 1a and -1.47 % of Cmp 1a	4 % of Cmp 1a and 6.41 % of Cmp 1a and 7 % of Cmp 1a and -2.26 % of Cmp 1a	15 % of Cmp 1a and 20 % of Cmp 1a and 10 % of Cmp 1a	-3 % of Carbachol and 4.36 % of Carbachol and 7 % of Carbachol	–	–
CC(NC(=O)Cc1noc(-c2cccs2)n1)c1ccccc1 (centres unmarked) [Compound 1.8, CC(C1=CC=CC=C1)NC(CC2=NOC(C3=CC=CS3)=N2)=O]	85 % of Cmp 1a and 73 % of Cmp 1a and 70 % of Cmp 1a	–	–	107 ± 2	109 % of Cmp 1a and 116 % of Cmp 1a and 101 % of Cmp 1a	111 % of Cmp 1a and 105 % of Cmp 1a and 96 % of Cmp 1a	93 % of Cmp 1a and 94 % of Cmp 1a and 84 % of Cmp 1a	85 % of Cmp 1a and 82 % of Cmp 1a and 75 % of Cmp 1a	69 % of Cmp 1a and 70 % of Cmp 1a and 47 % of Cmp 1a	38 % of Cmp 1a and 47 % of Cmp 1a and 20 % of Cmp 1a	0.333 % of Cmp 1a and 13 % of Cmp 1a and 7 % of Cmp 1a	-16 % of Cmp 1a and -13 % of Cmp 1a and 1.67 % of Cmp 1a	-16 % of Cmp 1a and 4.67 % of Cmp 1a and -5.33 % of Cmp 1a	-11 % of Cmp 1a and -5.67 % of Cmp 1a and -13 % of Cmp 1a	-5.67 % of Cmp 1a and 1.33 % of Cmp 1a and -13 % of Cmp 1a	5 % of Carbachol and -12 % of Carbachol and 8 % of Carbachol	0.2	–
Cc1nc2cc(-c3nc(CC(=O)NC(C)c4ccccc4)no3)ccc2o1 (centres unmarked) [Compound 1.22, CC(C1=CC=CC=C1)NC(CC2=NOC(C3=CC4=C(OC(C)=N4)C=C3)=N2)=O]	71 % of Cmp 1a and 37 % of Cmp 1a and 44 % of Cmp 1a	–	1.58	99 ± 2	109 % of Cmp 1a and 96 % of Cmp 1a and 93 % of Cmp 1a and 83 % of Cmp 1a and 99 % of Cmp 1a	90 % of Cmp 1a and 71 % of Cmp 1a and 95 % of Cmp 1a and 84 % of Cmp 1a and 101 % of Cmp 1a	58 % of Cmp 1a and 43 % of Cmp 1a and 99 % of Cmp 1a and 59 % of Cmp 1a and 110 % of Cmp 1a	50 % of Cmp 1a and 22 % of Cmp 1a and 51 % of Cmp 1a and 35 % of Cmp 1a and 73 % of Cmp 1a	30 % of Cmp 1a and 0.909 % of Cmp 1a and 8 % of Cmp 1a and 29 % of Cmp 1a and 36 % of Cmp 1a	1.28 % of Cmp 1a and -0.203 % of Cmp 1a and -2.54 % of Cmp 1a and 0.332 % of Cmp 1a and 14 % of Cmp 1a	1.35 % of Cmp 1a and 7.39 % of Cmp 1a and -10 % of Cmp 1a and -1.26 % of Cmp 1a and 4 % of Cmp 1a	7 % of Cmp 1a and 10 % of Cmp 1a and -6 % of Cmp 1a and 0.314 % of Cmp 1a and 2.72 % of Cmp 1a	-3.6 % of Cmp 1a and 18 % of Cmp 1a and -4.69 % of Cmp 1a and -1.59 % of Cmp 1a and 9 % of Cmp 1a	-5 % of Cmp 1a and 7.5 % of Cmp 1a and -3.72 % of Cmp 1a and 1.69 % of Cmp 1a and 6.38 % of Cmp 1a	13 % of Cmp 1a and 39 % of Cmp 1a and 19 % of Cmp 1a	-19 % of Carbachol and -2.46 % of Carbachol and -2.2 % of Carbachol	–	three-fold reduction to a complete loss of activity

Source: article PMC12775434, “Ultra-large virtual screening unveils potent agonists of the neuromodulatory orphan receptor GPR139” (Nature Communications, 2025)
